Data published in PubChem BioAssay AID1845212 (Molecular Pharmacology Branch, DTP, NCI, 2023).

Tested on: NCI-H719 tumor spheroids, viability
Experiment: Anticancer human tumor NCI-H719 cell line growth inhibition;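 note: spheroids exposed to compounds for seven days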;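 for viability, T/C: percent viability relative to DMSO vehicle control as 100%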
Details: spheroids with HUVEC and MSC; for IC50: curve of first compound; for viability, T/C: stronger effect = lower value
How it was run: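 Complex spheroids of malignant cells with endothelial cells and mesenchymal stem cells; agents alone or combined, from near clinical Cmax (or 10 microM if unknown) down in half-log steps, 0.25% DMSO final.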

[1] = second compound 30 pM, first compound 0.0316 µM
[2] = second compound 30 pM, first compound 0.1 µM
[3] = second compound 30 pM, first compound 0.316 µM
[4] = second compound 30 pM, first compound 1 µM
[5] = second compound 30 pM, first compound 3.16 µM
[6] = second compound 30 pM, first compound 10 µM
[7] = second compound 94.9 pM, first compound 0.0316 µM
[8] = second compound 94.9 pM, first compound 0.1 µM
[9] = second compound 94.9 pM, first compound 0.316 µM
[10] = second compound 94.9 pM, first compound 1 µM
[11] = second compound 94.9 pM, first compound 3.16 µM
[12] = second compound 94.9 pM, first compound 10 µM
[13] = second compound 0.0003 µM, first compound 0.0316 µM
[14] = second compound 0.0003 µM, first compound 0.1 µM
[15] = second compound 0.0003 µM, first compound 0.316 µM
[16] = second compound 0.0003 µM, first compound 1 µM
[17] = second compound 0.0003 µM, first compound 3.16 µM
[18] = second compound 0.0003 µM, first compound 10 µM
[19] = second compound 0.000949 µM, first compound 0.0316 µM
[20] = second compound 0.000949 µM, first compound 0.1 µM
[21] = second compound 0.000949 µM, first compound 0.316 µM
[22] = second compound 0.000949 µM, first compound 1 µM
[23] = second compound 0.000949 µM, first compound 3.16 µM
[24] = second compound 0.000949 µM, first compound 10 µM
[25] = second compound 0.003 µM, first compound 0.0316 µM
[26] = second compound 0.003 µM, first compound 0.1 µM
[27] = second compound 0.003 µM, first compound 0.316 µM
[28] = second compound 0.003 µM, first compound 1 µM
[29] = second compound 0.003 µM, first compound 3.16 µM
[30] = second compound 0.003 µM, first compound 10 µM

| SMILES | IC50 (second compound 30 pM) | IC50 (second compound 94.9 pM) | IC50 (second compound 0.0003 µM) | IC50 (second compound 0.000949 µM) | IC50 (second compound 0.003 µM) | viability, T/C [1] | viability, T/C [2] | viability, T/C [3] | viability, T/C [4] | viability, T/C [5] | viability, T/C [6] | viability, T/C [7] | viability, T/C [8] | viability, T/C [9] | viability, T/C [10] | viability, T/C [11] | viability, T/C [12] | viability, T/C [13] | viability, T/C [14] | viability, T/C [15] | other results |
| --- | --- | --- | --- | --- | --- | --- | --- | --- | --- | --- | --- | --- | --- | --- | --- | --- | --- | --- | --- | --- | --- |
| CC1COCCN1c1cc(-c2ccnn2C)c2ccnc(-c3ccn[nH]3)c2n1 (stereo not given) + COc1cc2c(cc1O)CCNC21CSC2c3c(OC(C)=O)c(C)c4c(c3C(COC1=O)N1C(O)C3Cc5cc(C)c(OC)c(O)c5C(C21)N3C)OCO4 | < 31.6 nM | < 31.6 nM | < 31.6 nM | < 31.6 nM | < 31.6 nM | 29% | 19.2% | 16.2% | 9.83% | 8.37% | 11% | 13.6% | 7.91% | 7.75% | 7.08% | 6.07% | 10.4% | 7.42% | 7.97% | 6.18% | viability, T/C [16]: 5.64%; viability, T/C [17]: 6.36%; viability, T/C [18]: 9.31%; viability, T/C [19]: 7.59%; viability, T/C [20]: 7.35%; viability, T/C [21]: 6.11%; viability, T/C [22]: 3.98%; viability, T/C [23]: 3.9%; viability, T/C [24]: 3.4%; viability, T/C [25]: 0.28%; viability, T/C [26]: 0.46%; viability, T/C [27]: 0.86%; viability, T/C [28]: 1.82%; viability, T/C [29]: 0.25%; viability, T/C [30]: 0.52% |
| COc1cc(C)[nH]c(=O)c1CN1CCc2c(Cl)cc(C(OC)C3COC3)c(Cl)c2C1=O (stereo not given) + COc1cc2c(cc1O)CCNC21CSC2c3c(OC(C)=O)c(C)c4c(c3C(COC1=O)N1C(O)C3Cc5cc(C)c(OC)c(O)c5C(C21)N3C)OCO4 | > 10000 nM | < 31.6 nM | < 31.6 nM | < 31.6 nM | < 31.6 nM | 91.6% | 85% | 88.3% | 95.7% | 90.9% | 82.9% | 39.9% | 42.6% | 43.9% | 31.1% | 32.4% | 50.6% | 13.2% | 6.14% | 8.15% | viability, T/C [16]: 5.96%; viability, T/C [17]: 6.6%; viability, T/C [18]: 7.13%; viability, T/C [19]: 6.97%; viability, T/C [20]: 6.88%; viability, T/C [21]: 8.11%; viability, T/C [22]: 6.65%; viability, T/C [23]: 6.56%; viability, T/C [24]: 6.23%; viability, T/C [25]: 0.23%; viability, T/C [26]: 0.35%; viability, T/C [27]: 0.34%; viability, T/C [28]: 0.86%; viability, T/C [29]: 0.34%; viability, T/C [30]: 0.93% |
